According to publication PMC3400037, “Application of a single-objective, hybrid genetic algorithm approach to pharmacokinetic model building” (Journal of Pharmacokinetics and Pharmacodynamics, 2012):
Where two headings read alike, the source gives them in different places.

Assays:
[1] = human, in vivo
Excerpt: (§1) Individuals who received oral olanzapine [14], perphaenazine [15], risperidone [16], or ziprasidone [17] were patients treated between January 2001 and December 2004 as part of the Clinical Antipsychotic Trials of Intervention Effectiveness (CATIE)—a multisite, US study of randomized, double-blind, medication comparative-effectiveness trial—in the treatment of Alzheimer’s (CATIE-AD) and schizophrenia (CATIE-SZ). […] Individuals who received intravenous citalopram were part of a cross sectional study of healthy volunteers participating in Pittsburgh’s Adult and Human Behavior Project; these individuals were between the ages of 30 and 55 years and not taking medications for hypertension, lipid disorders, or diabetes [22]. Individuals who received intravenous DMAG were cancer patients either at Pittsburgh’s Cancer Institute or at Memorial Sloan-Kettering participating in a phase II study.
(§2) The SOHGA operates on a set of candidate models in which each candidate specifies covariates included the in model, their functional forms, the structure of the inter-individual and residual variability, and the initial pharmacokinetic model parameter estimates [3]. Special-use software in which the SOHGA, coded and run in Microsoft Visual Studio and Compaq Digital Fortran, creates NONMEM control files to fit parameters and calculate the fitness of candidate models using NONMEM VI, Level 1.0 or NONMEM VII, version 7.2 using either first-order (risperidone only) or first-order conditional estimation with interaction using Xpose [23].
(§3) The SOHGA retained a population of 200–400 candidate models for 30–50 generations. A total of 0.7 crossover events were expected per set of parents. Candidate models for crossover were randomly selected based on scaled fitness function values; linear regression was performed using all fitness functions within two standard deviations of the mean, the fitness of the regression values were scaled to between 0.2 and 4, and outlying values were assigned one of these extreme values. This scaling of the fitness function improves convergence by not permitting outliers to dominate the selection process. The mutation rate was 0.01 mutations per bit. The candidate model with best fitness function was retained to the next generation, a technique known as elitism. Niche evaluation (where a niches differ by <4 bits) was performed. In niche evaluation, a penalty is applied to models that are similar to other models (differ by 4 or fewer bits). This prevents early convergence, maintaining diversity in the population. Four niches were used, insuring that at least four regions of the search space were explored in each phase of the search. A simple downhill search was performed every five generations. In the downhill search, each bit of the best model in each niche in reversed (0 to 1, 1 to 0) and the resulting models run. For example, if the bit string if of length 40, the downhill search will generate 40 new models for each niche that each differ by a single bit. If any of the resulting models are better than the current best model for that niche, the process is repeated with that model, until no further improvement is seen. Finally, timeout conditions were set where NONMEM timed out (terminated without completion failing convergence) after up to 600 min for a model and a generation timed out after up to 6,000 min although the exact timeout conditions varied by compound.

[2] = final stepwise model, oral, cited from earlier work; for Absorption rate constant (1/h)—TVKA: fixed based on literature, not estimated; for Volume of distribution (L)—TVV / Clearance (L/h)—TVCL: one compartment with absorption; for Volume of distribution (L)—TVV: (relative standard error; perphenazine: 95 % CI from bootstrapping)
[3] = Population pharmacokinetic model of clinical plasma concentration data, single-objective hybrid genetic algorithm (SOHGA) coupled to NONMEM; conditions: best SOHGA candidate model
Excerpt: as §1, §2, §3

[4] = Population pharmacokinetic model of clinical plasma concentration data, manual stepwise forward inclusion/backward elimination (NONMEM); type: in vivo, human; conditions: final stepwise model, IV
Experimental: Manual stepwise model results were taken from the literature or were generated from unpublished data (DMAG) or data reported elsewhere in the literature. These models were determined using similar methods. Briefly, for each compound, a covariate free model was used to select the model compartment structure with the combination of inter-individual and residual variability structures resulting in the lowest objective function value calculated by NONMEM (twice the negative log likelihood plus a fixed constant offset) and a reasonable distribution of residuals as the base model.
Univariate evaluations of covariates were then performed. […] The covariate and its function form that (1) yielded the lowest objective function conditional on (2) improved the objective function value by at least 3.84 (citalopram, DMAG, and [14, 15, 17, 21]) or 7.88 [16] points compared to the base model (which corresponds to Chi-squared values of p = 0.05 and p = 0.005 with one degree of freedom, respectively) and (3) in which there appeared to be a graphical relationship between the deviation in an individual predicted value and the covariate value across individual predicted values was included in the model. The remaining covariates were then included individually in the updated model, the inclusion criteria evaluated, and the model sequentially updated with additional covariates until no further covariates met the model inclusion criteria.
Finally, individual covariates were removed from the final model and the change in the objective function was calculated. Covariates were excluded from the final model if, when the covariate was removed, the objective function value increased by less than 3.84 (citalopram, DMAG, [14, 15, 21]), 6.63 [17] (a Chi-squared value of p = 0.01 with one degree of freedom), or 7.88 [16]. Although the models were derived using different versions of NONMEM, the final models reported in the literature were re-run in NONMEM VI, Level 1.0 using Fortran G77 and NONMEM VII, version 7.2 with Intel Fortran to confirm that the results were independent of the NONMEM version.
All continuous covariates were centered at zero.

[5] = clinical; conditions: human, in vivo, iv
Excerpt: as §1, §2, §3

[6] = 3 component mixture for clearance, FO, (relative standard error)
[7] = 3 component mixture for clearance
[8] = oral, one compartment with absorption, (relative standard error)
[9] = three compartment, (relative standard error)
[10] = IV, three compartment, (relative standard error)
[11] = CYP2C19 genotype, (relative standard error)

Cc1nc2n(c(=O)c1CCN1CCC(c3noc4cc(F)ccc34)CC1)CCCC2 [Risperidone, risperidone]
Absorption rate constant (1/h)—TVKA ([1]; po): 0.184.(21.1 %) 1/h | Central volume—TVV1 ([1]; po): 96.6 (31.2 %) | Clearance (L/h)—TVCL, Extensive metabolizer ([1]; po): 122 (11.5 %) L/h | Clearance (L/h)—TVCL, Intermediate metabolizer ([1]; po): 34.9 (8.9 %) L/h | Clearance (L/h)—TVCL, Poor metabolizer ([1]; po): 12.4 (8.5 %) L/h | Inter-comp clearance—TVQ ([1]; po): 27.1 (29.9 %) | Inter-individual variability—η^(V1) ([1]; po): 478 % (46.4 %) | Inter-individual variability—ωCL of ηCL ([1]; po): 7.3 % (32.2 %) | Percent of subjects who were extensive metabolizers ([1]; po): 41.4 % (8.6 %) | Percent of subjects who were poor metabolizers ([1]; po): 22.4 % (4.4 %) | Peripheral volume—TVV2 ([1]; po): 1.31x10^10 (1,000 %) | Clearance (L/h)—TVCL, Extensive metabolizer [2, 6]: 65.4 (9.9 %) L/h | Clearance (L/h)—TVCL, Poor metabolizer [2, 6]: 12.9 (6.5 %) L/h | Inter-individual variability—ωCL of ηCL, Extensive metabolizer [2, 7]: 56.6 % (16.8 %) | Inter-individual variability—ωCL of ηCL, Poor metabolizer [2, 7]: 95.9 % (39.5 %) | Percent of subjects who were extensive metabolizers [2, 7]: 52.4 % (6.2 %) | Percent of subjects who were poor metabolizers [2, 7]: 41.2 % (8.1 %) | Inter-individual variability—ωKA of ηKA [2]: 53.7 % (89.3 %) | Inter-individual variability—ωV of ηV [2]: 36.1 % (24.4 %) | Absorption rate constant (1/h)—TVKA [2]: Fixed at 1.7 1/h | Volume of distribution (L)—TVV [2]: 444 (17.8 %) L

Cc1cc2c(s1)Nc1ccccc1N=C2N1CCN(C)CC1 [Olanzapine, olanzapine]
Absorption rate constant (1/h)—TVKA ([1]; po): 0.773 (70.4 %) 1/h | Clearance (L/h)—TVCL ([1]; po): 21.1 (15.5 %) L/h | Inter-individual variability—ωCL of ηCL ([1]; po): 64.7 % (17.2 %) | Volume of distribution (L)—TVV ([1]; po): 4,130 (48.9 %) L | Inter-individual variability—ωCL of ηCL [2]: 68% | Inter-individual variability—ωV of ηV [2]: 86% | Absorption rate constant (1/h)—TVKA [2]: Fixed at 0.5 1/h | Clearance (L/h)—TVCL ([2]; (relative standard error)): 16.1 (7.3 %) L/h | Volume of distribution (L)—TVV [2]: 2,150 (26.0 %) L

O=C1Cc2cc(CCN3CCN(c4nsc5ccccc45)CC3)c(Cl)cc2N1 [Ziprasidone, ziprasidone]
Absorption rate constant (1/h)—TVKA ([1]; po): 0.424 (5.8 %) 1/h | Inter-individual variability—ωCL of ηCL ([1]; po): 69.0 % (21.4 %) | Inter-individual variability—ωV of ηV ([1]; po): 114 % (16.0 %) | Inter-individual variability—ωCL of ηCL [2]: 64.8 % (25 %) | Inter-individual variability—ωV of ηV [2]: 104.4 % (27 %) | Absorption rate constant (1/h)—TVKA [2]: Fixed at 0.5 1/h | Clearance (L/h)—TVCL ([2]; (relative standard error)): 122 (9 %) L/h | Volume of distribution (L)—TVV [2]: 1,060 (19 %) L | Clearance (L/h)—TVCL [3, 8]: 126 (9.0 %) L/h | Volume of distribution (L)—TVV [3, 8]: 1,030 (12.4 %) L

CO[C@H]1/C=C\C=C(/C)C(=O)NC2=CC(=O)C(NCCN(C)C)=C(C[C@@H](C)C[C@H](OC)[C@H](O)[C@@H](C)/C=C(\C)[C@@H]1OC(N)=O)C2=O [DMAG, 17-(dimethylaminoethylamio)-17-demethoxygeldanamycin]
Inter-occasion variability (first compartment volume) [4]: 59.7 % (31.2 %) | Inter-occasion variability—ωQ1 of ηOCC,Q1 [4]: 32.6 % (37.2 %) | Inter-patient variability—ωQ2 of ηQ2 [4]: 75.8 % (32.0 %) | Inter-patient variability—ωV3 of ηV3 [4]: 67.5 % (37.3 %) | Inter-individual variability—ωV1 of ηV1 ([4]; standard deviation ω): 33.0 % (111.9 %) | Inter-individual variability—ωV2 of ηV2 ([4]; standard deviation ω): 50.7 % (23.7 %) | Inter-patient variability—ωCL of ηCL ([4]; standard deviation ω): 53.8 % (22.9 %) | First compartment volume (L)—TVV1 [4, 9]: 27.4 (11.7 %) L | Second compartment volume (L)—TVV2 [4, 9]: 66.4 (10.1 %) L | Third compartment volume (L)—TVV3 [4, 9]: 142 (13.5 %) L | Clearance (L/h)—TVCL ([4]; typical value (relative standard error)): 8.4 (11.2 %) L/h | Inter-individual variability—ωV1 of ηV1 ([3]; IV): 39.7 % (24.5 %) | Inter-individual variability—ωV2 of ηV2 ([3]; IV): 42.3 % (24.8 %) | Inter-occasion variability—ωCL of ηOCC,CL ([3]; IV): 8.3 % (38.6 %) | Inter-occasion variability—ωQ1 of ηOCC,Q1 ([3]; IV): 14.0 % (32.7 %) | Inter-patient variability—ωCL of ηCL ([3]; IV): 22.1 % (29.1 %) | First compartment volume (L)—TVV1 [3, 10]: 28.1 (12.9 %) L | Second compartment volume (L)—TVV2 [3, 10]: 77.9 (11.4 %) L | Third compartment volume (L)—TVV3 [3, 10]: 86.4 (8.5 %) L | Clearance (L/h)—TVCL ([3]; IV, typical value (relative standard error)): 9.28 (7.9 %) L/h

CN(C)CCC[C@@]1(c2ccc(F)cc2)OCc2cc(C#N)ccc21 [Escitalopram, escitalopram]
Absorption rate constant (1/h)—TVKA ([1]; po): 0.594 (23.1 %) 1/h | Clearance (L/h)—TVCL ([1]; po): 25.5 (5.3 %) L/h | Inter-individual variability—ωV of ηV ([1]; po): 59.4 % (32.6 %) | Volume of distribution (L)—TVV ([1]; po): 874 (11.8 %) L | Clearance (L/h)—TVCL, Missing metabolizer information ([2]; (relative standard error)): 21.5 (7.80 %) L/h | Clearance (L/h)—TVCL, Extensive metabolizer [2, 11]: 26 (7.20 %) L/h | Clearance (L/h)—TVCL, Poor metabolizer [2, 11]: 19.8 (8.50 %) L/h | Inter-individual variability—ωV of ηV [2]: 62.0 % (40.3 %) | Volume of distribution (L)—TVV [2]: 947 (10.2 %) L

OCCN1CCN(CCCN2c3ccccc3Sc3ccc(Cl)cc32)CC1 [Perphenazine, perphenazine]
Absorption rate constant (1/h)—TVKA ([1]; po): 0.859 (80.7 %) 1/h | Clearance (L/h)—TVCL ([1]; po): 354 (12.3 %) L/h | Inter-individual variability—ωCL of ηCL ([1]; po): 78.8 % (11.4 %) | Volume of distribution (L)—TVV ([1]; po): 1.10x10^7 (172 %) L | Clearance (L/h)—TVCL ([2]; (relative standard error)): 483 L/h | Volume of distribution (L)—TVV [2]: 18,200 (13,865 - 65,795) L

CN(C)CCCC1(c2ccc(F)cc2)OCc2cc(C#N)ccc21 (stereo not shown) [Citalopram, citalopram]
Central volume (L)—TVV1 ([1]; iv): 82.1 (17.7 %) L | Inter-comp clearance (L/h)—TVQ ([1]; iv): 6.26 (19.0 %) L/h | Inter-individual variability—ωQ of ηQ ([1]; iv): 35.5 % (19.0 %) | Inter-individual variability—ωV1 of ηV1 ([1]; iv): 46.2 % (15.5 %) | Inter-individual variability—ωV2 of ηV2 ([1]; iv): 25.4 % (12.5 %) | Peripheral volume (L)—TVV2 ([1]; iv): 205 (12.6 %) L | clearance [5]: 20.3 mL/min | Inter-individual variability—ωQ of ηQ ([4]; standard deviation ω): 48.5 % (NA) | Inter-individual variability—ωV1 of ηV1 ([4]; standard deviation ω): 12.2 % (NA) | Inter-individual variability—ωV2 of ηV2 ([4]; standard deviation ω): 22.6 % (NA) | Central volume (L)—TVV1 ([4]; two compartment): 2.87 (NA) L | Peripheral volume (L)—TVV2 ([4]; two compartment): 1,510 (NA) L | clearance ([4]; human, plasma, 0.33 mg/kg lean body mass, typical value (relative standard error), read-out: Clearance (L/h)—TVCL (converted)): 7.11 L/h
